For the test, the system named is Campylobacter novel strains. The experiment in a line: Antimicrobial susceptibility testing by agar dilution method (MIC).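 For all read-outs here: agar dilution MIC on HBA, used in place of the BSAC-recommended Iso-sensitest agar, across a panel of 14 antimicrobials.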 Conditions: for Distribution (%) of MIC (μg/ml) 0.03: % of novel strains with MIC 0.03 μg/ml; for Distribution (%) of MIC (μg/ml) 0.06: % of novel strains with MIC 0.06 μg/ml; for Distribution (%) of MIC (μg/ml) 0.13: % of novel strains with MIC 0.13 μg/ml; for Distribution (%) of MIC (μg/ml) 0.25: % of novel strains with MIC 0.25 μg/ml; for Distribution (%) of MIC (μg/ml) 1: % of novel strains with MIC 1 μg/ml; for Distribution (%) of MIC (μg/ml) 2: % of novel strains with MIC 2 μg/ml; for Distribution (%) of MIC (μg/ml) 4: % of novel strains with MIC 4 μg/ml; for Distribution (%) of MIC (μg/ml) 8: % of novel strains with MIC 8 μg/ml; for Distribution (%) of MIC (μg/ml) 32: % of novel strains with MIC 32 μg/ml; for Distribution (%) of MIC (μg/ml) 64: % of novel strains with MIC 64 μg/ml.

[1] abbreviates: Campylobacter novel strains, agar dilution on HBA.

≈ marks a conversion by molar mass, not a printed value. Where “and” joins values, the source holds several entries; their conditions need not be identical. Equal values may be shown once.

Procedure: Antimicrobial susceptibility testing was performed using the agar dilution method for the Campylobacter novel strains against 14 antimicrobials. […] As the strains were unable to grow on the Iso-sensitest agar (ISA) recommended by the BSAC guidelines, HBA (Table 1) was used as an alternative media.

As to `C=C[C@]1(C)C[C@@H](OC(=O)CSCCN(CC)CC)[C@]2(C)[C@H](C)CC[C@]3(CCC(=O)[C@H]32)[C@@H](C)[C@@H]1O` [Tiamulin], for the setting “Campylobacter”, the MIC50 (usually the lowest concentration that inhibits either 50% of growth or 50% of the strains tested, depending on the study) was 2 µg/mL (≈ 4.05 µM); the MIC90 (in general, an inhibitory concentration at the 90% level, which refers to growth in some studies and to a panel of isolates in others) came to 2 µg/mL (≈ 4.05 µM).

For `CC1(C)S[C@@H]2[C@H](NC(=O)[C@H](N)c3ccccc3)C(=O)N2[C@H]1C(=O)O` [Ampicillin], for the setting “Campylobacter”, the MIC50 is 1 µg/mL (≈ 2.86 µM) and the MIC90 is 2 µg/mL (≈ 5.72 µM).

As to `CCN1CCN(C(=O)N[C@@H](C(=O)N[C@@H]2C(=O)N3C(C(=O)O)=C(CSc4nnnn4C)CS[C@H]23)c2ccc(O)cc2)C(=O)C1=O` [Cefoperazone], under “Campylobacter”, the MIC50 is 64 µg/mL (≈ 99.1 µM) and the MIC90 came to 64 µg/mL (≈ 99.1 µM).

In the case of Polymyxin B, under “agar dilution on HBA”, the “Distribution (%) of MIC (μg/ml) 0.03” value was 0%, the “Distribution (%) of MIC (μg/ml) 0.06” value turned out to be 0%, the “Distribution (%) of MIC (μg/ml) 0.13” value is listed as 0% and the “Distribution (%) of MIC (μg/ml) 0.25” value was found to be 0%. Also, for the setting “agar dilution on HBA”, the “Distribution (%) of MIC (μg/ml) 1” value was found to be 0%, the “Distribution (%) of MIC (μg/ml) 2” value turned out to be 0%, the “Distribution (%) of MIC (μg/ml) 4” value was 21.74% and the “Distribution (%) of MIC (μg/ml) 8” value is reported as 56.52%. In addition, under “agar dilution on HBA”, the “Distribution (%) of MIC (μg/ml) 32” value is reported as 8.70% and the “Distribution (%) of MIC (μg/ml) 64” value is listed as 0%. Under setting [1], this compound came in with an MIC50 of 8 µg/mL and an MIC90 of 16 µg/mL.

For the setting “Campylobacter”, `O=C(N[C@H](CO)[C@H](O)c1ccc([N+](=O)[O-])cc1)C(Cl)Cl` [Chloramphenicol] yielded an MIC50 of 4 µg/mL (≈ 12.4 µM) and an MIC90 of 8 µg/mL (≈ 24.8 µM).

As to Gentamycin, under “agar dilution on HBA”, the “Distribution (%) of MIC (μg/ml) 0.03” value was found to be 0%, the “Distribution (%) of MIC (μg/ml) 0.06” value came out at 0%, the “Distribution (%) of MIC (μg/ml) 0.13” value came out at 0% and the “Distribution (%) of MIC (μg/ml) 1” value turned out to be 0%. Further, for the setting “agar dilution on HBA”, the “Distribution (%) of MIC (μg/ml) 2” value is on record as 0%, the “Distribution (%) of MIC (μg/ml) 4” value came to 0%, the “Distribution (%) of MIC (μg/ml) 8” value stood at 0% and the “Distribution (%) of MIC (μg/ml) 32” value is 0%. Further, the “Distribution (%) of MIC (μg/ml) 64” value (agar dilution on HBA) turned out to be 0%. Further, under setting [1], the MIC50 was 0.5 µg/mL and 0.50 µg/mL; the MIC90 was 0.5 µg/mL and 0.50 µg/mL.

`[H]/N=C(/N)N[C@H]1[C@H](O)[C@@H](O)[C@H](O[C@@H]2O[C@@H](C)[C@](O)(C=O)[C@H]2O[C@@H]2O[C@@H](CO)[C@H](O)[C@@H](O)[C@@H]2NC)[C@@H](N/C(N)=N\[H])[C@@H]1O` [Streptomycin]: for the setting “Campylobacter”, the MIC50 came to 1 µg/mL (≈ 1.72 µM) and the MIC90 was 1 µg/mL (≈ 1.72 µM).

Under “Campylobacter”, `NC[C@H]1O[C@H](O[C@H]2[C@H](O)[C@@H](O[C@H]3O[C@H](CO)[C@@H](O)[C@H](N)[C@H]3O)[C@H](N)C[C@@H]2N)[C@H](O)[C@@H](O)[C@@H]1O` [Kanamycin] yielded an MIC50 of 4 µg/mL (≈ 8.26 µM) and an MIC90 of 4 µg/mL (≈ 8.26 µM).

For `CC[C@H]1OC(=O)[C@H](C)[C@@H](O[C@H]2C[C@@](C)(OC)[C@@H](O)[C@H](C)O2)[C@H](C)[C@@H](O[C@@H]2O[C@H](C)C[C@H](N(C)C)[C@H]2O)[C@](C)(O)C[C@@H](C)C(=O)[C@H](C)[C@@H](O)[C@]1(C)O` [Ertythromycin, Erythromycin], for the setting “Campylobacter”, the MIC50 was found to be 1 µg/mL (≈ 1.36 µM) and the MIC90 came to 2 µg/mL (≈ 2.73 µM).

For the setting “Campylobacter”, `CN(C)[C@@H]1C(O)=C(C(N)=O)C(=O)[C@@]2(O)C(O)=C3C(=O)c4c(O)cccc4[C@@](C)(O)[C@H]3C[C@@H]12` [Tetracycline] yielded an MIC50 of 1 µg/mL (≈ 2.25 µM) and an MIC90 of 64 µg/mL (≈ 144 µM).

Take `O=C(O)c1cn(C2CC2)c2cc(N3CCNCC3)c(F)cc2c1=O` [Ciprofloxacin]: for the setting “Campylobacter”, the MIC50 is 0.06 µg/mL (≈ 0.181 µM) and the MIC90 turned out to be 0.06 µg/mL (≈ 0.181 µM).

On to Colistin, for which, where the note is “agar dilution on HBA”, the “Distribution (%) of MIC (μg/ml) 0.03” value was determined as 0%, the “Distribution (%) of MIC (μg/ml) 0.06” value was determined as 0%, the “Distribution (%) of MIC (μg/ml) 0.13” value worked out at 0% and the “Distribution (%) of MIC (μg/ml) 0.25” value is 0%. For the same compound, where the note is “agar dilution on HBA”, the “Distribution (%) of MIC (μg/ml) 1” value was 0%, the “Distribution (%) of MIC (μg/ml) 2” value is 0%, the “Distribution (%) of MIC (μg/ml) 4” value came to 8.70% and the “Distribution (%) of MIC (μg/ml) 8” value is 73.91%. Further, under “agar dilution on HBA”, the “Distribution (%) of MIC (μg/ml) 32” value is on record as 13.04% and the “Distribution (%) of MIC (μg/ml) 64” value was determined as 0%. Also, the “Distribution (%) of MIC (μg/ml) 0.50” value (% of novel strains with MIC 0.50 μg/ml, agar dilution on HBA) is reported as 0%. Under setting [1], this compound gave an MIC50 of 8 µg/mL and an MIC90 of 32 µg/mL.

The values are drawn from patent US20150284674A1, “CAMPYLOBACTER BACTERIA AND DETECTION” (priority 2012, published 2015).
